Measurements from PubChem BioAssay AID248 (DTP/NCI, 2004).
“And” between values parts separate entries of the source, which are not always exact repeats. Equal values may be shown once. Toxic doses and inconclusive results are not listed. No stated cut-off is given here; in the data, active means T/C of 150% or more; inactive means T/C below 125%.

System: L1210 leukemia ip in BDF1 mice, survival T/C
Experiment: NCI In Vivo Anticancer Drug Screen. Data for tumor model L1210 Leukemia (intraperitoneal) in B6D2F1 (BDF1) mice
Details: endpoint: mean survival time, higher = longer survival
Method in brief: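 Read-out is survival time, reported as the treated-group measurement over the vehicle-control measurement.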

[1] = dose: 100.0 mg/kg/injection, schedule: Q01DX009 (ip), vehicle: Klucel (hydroxypropylcellulose) (HPC)
[2] = dose: 200.0 mg/kg/injection, schedule: Q01DX009 (ip), vehicle: Klucel (hydroxypropylcellulose) (HPC)
[3] = dose: 400.0 mg/kg/injection, schedule: Q01DX009 (ip), vehicle: Klucel (hydroxypropylcellulose) (HPC)
[4] = dose: 100.0 mg/kg/injection, schedule: Q04DX003 (ip), vehicle: saline with Tween-80
[5] = dose: 200.0 mg/kg/injection, schedule: Q04DX003 (ip), vehicle: saline with Tween-80
[6] = dose: 400.0 mg/kg/injection, schedule: Q04DX003 (ip), vehicle: saline with Tween-80
[7] = dose: 100.0 mg/kg/injection, schedule: Q04DX003 (ip), vehicle: saline
[8] = dose: 400.0 mg/kg/injection, schedule: Q04DX003 (ip), vehicle: saline
[9] = dose: 100.0 mg/kg/injection, schedule: Q04DX003 (ip), vehicle: Klucel (hydroxypropylcellulose) (HPC)
[10] = dose: 200.0 mg/kg/injection, schedule: Q04DX003 (ip), vehicle: Klucel (hydroxypropylcellulose) (HPC)
[11] = dose: 400.0 mg/kg/injection, schedule: Q04DX003 (ip), vehicle: Klucel (hydroxypropylcellulose) (HPC)
[12] = dose: 50.0 mg/kg/injection, schedule: Q04DX003 (ip), vehicle: saline
[13] = dose: 12.5 mg/kg/injection, schedule: Q04DX003 (ip), vehicle: saline with Tween-80
[14] = dose: 25.0 mg/kg/injection, schedule: Q04DX003 (ip), vehicle: saline with Tween-80
[15] = dose: 100.0 mg/kg/injection, schedule: Q01DX009 (ip), vehicle: saline
[16] = dose: 200.0 mg/kg/injection, schedule: Q01DX009 (ip), vehicle: saline
[17] = dose: 400.0 mg/kg/injection, schedule: Q01DX009 (ip), vehicle: saline
[18] = dose: 12.5 mg/kg/injection, schedule: Q01DX009 (ip), vehicle: saline
[19] = dose: 25.0 mg/kg/injection, schedule: Q01DX009 (ip), vehicle: saline

Measured: T/C

O=C1CCCC(=O)N1.[Tl]
inactive: dose: 3.12 mg/kg/injection, schedule: Q04DX003 (ip), vehicle: water 108 % of control | dose: 6.25 mg/kg/injection, schedule: Q04DX003 (ip), vehicle: water 102 % of control | dose: 12.5 mg/kg/injection, schedule: Q04DX003 (ip), vehicle: water 96 % of control

O=C(c1ccc(C(=O)N(c2ccccc2)C2CCCCC2)cc1)N(c1ccccc1)C1CCCCC1
inactive: [1] 96 % of control | [2] 100 % of control | [3] 86 % of control

CCOC(=O)c1ccc(N(Cc2cccc([N+](=O)[O-])c2)S(=O)(=O)c2ccc(C)cc2)cc1
inactive: dose: 75.0 mg/kg/injection, schedule: Q01DX001 (ip), vehicle: saline with Tween-80 93 % of control | dose: 150.0 mg/kg/injection, schedule: Q01DX001 (ip), vehicle: saline with Tween-80 87 % of control

O=C(/C=C(\c1ccccc1)c1ccc([N+](=O)[O-])cc1)Nc1ccc(S(=O)(=O)F)cc1
inactive: [4] 96 % of control | [5] 91 % of control | [6] 96 % of control

CCN(CC)CCNC(=O)Nc1ccc(OC)cc1
inactive: [1] 96 % of control | [2] 103 % of control

CC1=NCCO1
inactive: [7] 102 % of control | dose: 200.0 mg/kg/injection, schedule: Q04DX003 (ip), vehicle: saline 105 % of control | [8] 105 % of control

CC(C)(C1c2ccccc2C(=O)c2ccccc21)[N+](=O)[O-]
inactive: [1] 101 % of control | [9] 98 % of control | [2] 94 % of control | [10] 101 % of control | [3] 99 % of control | [11] 101 % of control

O=C(Nc1ccc2c(c1)OCO2)O/N=C\c1ccccn1
inactive: dose: 50.0 mg/kg/injection, schedule: Q01DX009 (ip), vehicle: saline with Tween-80 103 % of control | dose: 100.0 mg/kg/injection, schedule: Q01DX009 (ip), vehicle: saline with Tween-80 86 % of control and 92 % of control | [4] 100 % of control | dose: 200.0 mg/kg/injection, schedule: Q01DX009 (ip), vehicle: saline with Tween-80 86 % of control and 92 % of control | [5] 101 % of control | dose: 400.0 mg/kg/injection, schedule: Q01DX009 (ip), vehicle: saline with Tween-80 91 % of control | [6] 95 % of control

N#CSCc1ccc(CSC#N)c(Cl)c1
inactive: dose: 1.56 mg/kg/injection, schedule: Q01DX009 (ip), vehicle: saline sonified 97 % of control | dose: 1.56 mg/kg/injection, schedule: Q04DX003 (ip), vehicle: saline with Tween-80 101 % of control | dose: 3.13 mg/kg/injection, schedule: Q01DX009 (ip), vehicle: saline sonified 109 % of control | dose: 3.13 mg/kg/injection, schedule: Q04DX003 (ip), vehicle: saline with Tween-80 109 % of control | dose: 6.25 mg/kg/injection, schedule: Q01DX009 (ip), vehicle: saline sonified 111 % of control | dose: 6.25 mg/kg/injection, schedule: Q04DX003 (ip), vehicle: saline with Tween-80 109 % of control

CCN(CC)CCNCC(Cc1ccccc1)c1ccccc1 (configuration not stated)
inactive: dose: 100.0 mg/kg/injection, schedule: Q04DX002 (ip), vehicle: saline 99 % of control | dose: 200.0 mg/kg/injection, schedule: Q04DX002 (ip), vehicle: saline 105 % of control

O=C(O)CCC(=O)c1ccc2ccccc2c1
inactive: [9] 100 % of control | [10] 91 % of control | [11] 92 % of control

CCC1C(=O)OCc2c1c(Br)cn(C)c2=O (configuration not stated)
inactive: dose: 12.5 mg/kg/injection, schedule: Q04DX003 (ip), vehicle: saline 98 % of control | dose: 12.5 mg/kg/injection, schedule: Q04DX003 (oral), vehicle: saline with Tween-80 100 % of control | dose: 25.0 mg/kg/injection, schedule: Q01DX001 (ip), vehicle: saline with Tween-80 101 % of control | dose: 25.0 mg/kg/injection, schedule: Q04DX003 (ip), vehicle: saline 97 % of control | dose: 25.0 mg/kg/injection, schedule: Q04DX003 (oral), vehicle: saline with Tween-80 100 % of control | dose: 50.0 mg/kg/injection, schedule: Q01DX001 (ip), vehicle: saline with Tween-80 93 % of control | [12] 108 % of control | dose: 50.0 mg/kg/injection, schedule: Q04DX003 (oral), vehicle: saline with Tween-80 104 % of control | dose: 100.0 mg/kg/injection, schedule: Q01DX001 (ip), vehicle: saline with Tween-80 97 % of control | [7] 93 % of control | dose: 100.0 mg/kg/injection, schedule: Q04DX003 (oral), vehicle: saline with Tween-80 96 % of control | dose: 200.0 mg/kg/injection, schedule: Q01DX001 (ip), vehicle: saline with Tween-80 101 % of control

COc1ccc2c(c1)CC/C(=C\c1ccc(OCCN3CCCC3)cc1)C2=O
inactive: [13] 105 % of control | [14] 107 % of control | dose: 50.0 mg/kg/injection, schedule: Q04DX003 (ip), vehicle: saline with Tween-80 100 % of control | [4] 111 % of control

O=C1CNC(=O)N1CCCl
inactive: [12] 100 % of control | [15] 100 % of control | [7] 103 % of control | [16] 104 % of control | [17] 113 % of control | [8] 94 % of control

O=C(NC/C=C/Br)Nc1c2ccccc2nc2ccccc12
inactive: [18] 102 % of control | [19] 102 % of control | dose: 50.0 mg/kg/injection, schedule: Q01DX009 (ip), vehicle: saline 109 % of control

O=C1NC(=O)C2C3OC(C(Cl)C3Cl)C12 (configuration not stated)
inactive: dose: 12.5 mg/kg/injection, schedule: Q04DX002 (ip), vehicle: Klucel (hydroxypropylcellulose) (HPC) 98 % of control | dose: 25.0 mg/kg/injection, schedule: Q01DX009 (ip), vehicle: Klucel (hydroxypropylcellulose) (HPC) 97 % of control | dose: 25.0 mg/kg/injection, schedule: Q04DX002 (ip), vehicle: Klucel (hydroxypropylcellulose) (HPC) 102 % of control | dose: 50.0 mg/kg/injection, schedule: Q01DX009 (ip), vehicle: Klucel (hydroxypropylcellulose) (HPC) 107 % of control | dose: 50.0 mg/kg/injection, schedule: Q04DX002 (ip), vehicle: Klucel (hydroxypropylcellulose) (HPC) 98 % of control | dose: 75.0 mg/kg/injection, schedule: Q01DX009 (ip), vehicle: Klucel (hydroxypropylcellulose) (HPC) 96 % of control | dose: 75.0 mg/kg/injection, schedule: Q01DX009 (ip), vehicle: carboxymethylcellulose (CMC) 100 % of control

CCCCCCCCCCCCCC(O)CC(=O)O (configuration not stated)
inactive: dose: 100.0 mg/kg/injection, schedule: Q04DX002 (ip), vehicle: Klucel (hydroxypropylcellulose) (HPC) 91 % of control | dose: 200.0 mg/kg/injection, schedule: Q04DX002 (ip), vehicle: Klucel (hydroxypropylcellulose) (HPC) 91 % of control | dose: 400.0 mg/kg/injection, schedule: Q04DX002 (ip), vehicle: Klucel (hydroxypropylcellulose) (HPC) 104 % of control

OC1OCC(Cc2ccc3c(c2)OCO3)C1Cc1ccc2c(c1)OCO2 (configuration not stated)
inactive: [15] 91 % of control | [16] 99 % of control | [17] 88 % of control

O=C(NCCCl)Nc1cccnc1
inactive: dose: 6.25 mg/kg/injection, schedule: Q01DX009 (ip), vehicle: saline 104 % of control | [18] 101 % of control | [13] 102 % of control | [19] 105 % of control | [14] 96 % of control

O=C(O)C12CCC(CC1Br)C2 (configuration not stated)
inactive: dose: 75.0 mg/kg/injection, schedule: Q01DX001 (ip), vehicle: acetone 105 % of control | [15] 102 % of control | dose: 150.0 mg/kg/injection, schedule: Q01DX001 (ip), vehicle: acetone 106 % of control | [16] 110 % of control | dose: 300.0 mg/kg/injection, schedule: Q01DX001 (ip), vehicle: acetone 102 % of control | [17] 102 % of control

Cc1c(C)c(C)c(CNNC(=S)Nc2cccc(Cl)c2)c(C)c1C
inactive: [1] 95 % of control | [2] 91 % of control | [3] 91 % of control

O=C1C=C2C=CCCC2CC1 (configuration not stated)
inactive: dose: 75.0 mg/kg/injection, schedule: Q01DX001 (ip), vehicle: other 104 % of control | dose: 150.0 mg/kg/injection, schedule: Q01DX001 (ip), vehicle: other 98 % of control | dose: 300.0 mg/kg/injection, schedule: Q01DX001 (ip), vehicle: other 114 % of control

Cc1ncc(CO)c(/C=N\OCc2cccc(Cl)c2)c1O
inactive: [18] 100 % of control | [19] 100 % of control
